Reference: US20100184790A1, “PYRROLO[2,3-B]PYRIDINE COMPOUNDS, AZAINDOLE COMPOUNDS USED FOR SYNTHESIZING SAID PYRROLO[2,3-B]PYRIDINE COMPOUNDS, METHODS FOR THE PRODUCTION THEREOF, AND USES THEREOF” (CENTRE NATIONAL DE LA RECHERCHE SCIENTIFIQUE, priority 2007, published 2010)
pIC50: −log10 of the molar value. Read-outs that look alike come from different tables or passages of the source.

What was measured:
SH-SY5Y cells = assay: Cell survival, MTS reduction, SH-SY5Y; assay type: cell-based; details: Homo sapiens, Table 2, exposed for 24 hours, read-out: IC50 survival of SH-SY5Y cells (MTS reduction)
Description: The human neuroblastoma cell line SH-SY5Y was grown in a DMEM medium with L-glutamine originating from Invitrogen (Cergy Pontoise, France), antibiotics and 10% by volume of FCS originating from Invitrogen. […] These compounds were also tested at various concentrations with regard to their effects on SH-SY5Y and HEK293 cells. […] The IC50 values were calculated from the dose-response curves and are given in micromoles (mean±standard deviation of two independent measurements carried out in triplicate). […] The survival of the cells was estimated by the assaying of the degree of reduction of MTS induced by this exposure. […] The ICS© values were calculated from dose-response curves and are given in micromoles in table 3 below.

DYRK1A = DYRK1A (Rattus norvegicus, UniProt Q63470); assay: DYRK1A kinase assay (myelin basic protein); assay type: biochemical
GSK-3α/β = GSK-3α/β kinase assay (GS-1 peptide); assay type: biochemical, porcine; details: 15 μM ATP, 30° C.
Description: After incubating at 30° C. for 30 (thirty) minutes, the 25 μl aliquots of the supernatant were treated as described above.

CK1δ/ε = CK1δ/ε kinase assay (CK1-specific peptide); assay type: biochemical, porcine; details: 15 μM ATP, 30° C.
Description: CK1δ/ε was purified from porcine brain by affinity chromatography on an immobilized axin fragment. It was assayed as described for CDK1 but using a CK1-specific peptide substrate.

CDK1/cyclin B = CDK1/cyclin B kinase assay (histone H1, [γ-33P]-ATP); details: read-out: IC50 CDK1/cyclin B, 15 μM ATP, 30° C.
Description: Controls were prepared with appropriate dilutions of dimethyl sulfoxide.
After incubating at 30° C. for 30 minutes, 25 μl aliquots of the supernatant were spotted onto filters made of Whatman P81 phosphocellulose paper and, 20 seconds later, the filters were washed 5 times (for at least 5 (five) minutes each time) in a solution of 10 ml of phosphoric acid/liter of water. The wet filters were subjected to counting in the presence of an ACS scintillation fluid from Amersham.

CDK2/cyclin A = target: T1, CDK2/cyclin A (Homo sapiens, UniProt P24941); assay: CDK2/cyclin A kinase assay; assay type: biochemical; details: 15 μM ATP, 30° C., histone H1; read-out: IC50 CDK2/cyclinA
T1 construct: made in house; host or cells: insect cells
Description: CDK2/cyclin A (human, recombinant, expressed in insect cells) was assayed as described for CDK1/cyclin B.

CDK9/cyclin T = target: T2, CDK9/cyclin T (Homo sapiens, UniProt P50750); assay: CDK9/cyclin T kinase assay; assay type: biochemical; details: 15 μM ATP, 30° C., pRB fragment
T2 construct: made in house; host or cells: insect cells
T2 sequence (P50750 whole entry, the tested form may be a part): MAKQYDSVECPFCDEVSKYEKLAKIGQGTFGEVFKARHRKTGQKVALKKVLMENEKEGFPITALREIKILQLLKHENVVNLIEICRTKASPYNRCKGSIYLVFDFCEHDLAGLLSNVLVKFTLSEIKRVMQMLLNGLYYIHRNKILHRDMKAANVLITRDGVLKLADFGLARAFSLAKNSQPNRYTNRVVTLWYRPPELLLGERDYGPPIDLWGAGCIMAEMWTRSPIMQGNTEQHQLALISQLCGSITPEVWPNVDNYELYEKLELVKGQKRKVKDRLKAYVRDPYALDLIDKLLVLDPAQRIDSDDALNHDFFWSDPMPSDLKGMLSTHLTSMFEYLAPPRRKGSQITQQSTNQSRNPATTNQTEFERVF
T2 sequence (O60563 whole entry partner, the tested form may be a part): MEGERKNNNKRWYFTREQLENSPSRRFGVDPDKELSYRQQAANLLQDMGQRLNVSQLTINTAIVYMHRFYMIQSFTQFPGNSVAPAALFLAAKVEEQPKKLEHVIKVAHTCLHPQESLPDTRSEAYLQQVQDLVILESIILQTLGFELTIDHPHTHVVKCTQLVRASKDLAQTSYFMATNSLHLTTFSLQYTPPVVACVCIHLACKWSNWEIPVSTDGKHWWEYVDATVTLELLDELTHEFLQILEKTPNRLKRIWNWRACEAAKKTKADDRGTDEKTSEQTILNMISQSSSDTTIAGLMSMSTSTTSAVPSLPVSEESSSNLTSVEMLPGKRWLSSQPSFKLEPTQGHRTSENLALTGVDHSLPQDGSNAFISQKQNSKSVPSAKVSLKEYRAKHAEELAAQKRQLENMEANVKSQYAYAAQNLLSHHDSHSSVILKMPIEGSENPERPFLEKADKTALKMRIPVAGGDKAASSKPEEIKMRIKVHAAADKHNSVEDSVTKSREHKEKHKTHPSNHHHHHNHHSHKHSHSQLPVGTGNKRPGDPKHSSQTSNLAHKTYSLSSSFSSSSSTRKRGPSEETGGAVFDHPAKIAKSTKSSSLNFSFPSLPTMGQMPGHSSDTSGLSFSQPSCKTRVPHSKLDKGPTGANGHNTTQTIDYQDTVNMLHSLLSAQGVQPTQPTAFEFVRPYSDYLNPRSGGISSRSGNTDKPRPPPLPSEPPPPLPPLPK

CDK5/p25 = CDK5/p25 (Homo sapiens, UniProt Q00535); assay: CDK5/p25 kinase assay; assay type: biochemical, mammalian
CDK5/p25, sequence (Q00535 whole entry, species assumed, the tested form may be a part): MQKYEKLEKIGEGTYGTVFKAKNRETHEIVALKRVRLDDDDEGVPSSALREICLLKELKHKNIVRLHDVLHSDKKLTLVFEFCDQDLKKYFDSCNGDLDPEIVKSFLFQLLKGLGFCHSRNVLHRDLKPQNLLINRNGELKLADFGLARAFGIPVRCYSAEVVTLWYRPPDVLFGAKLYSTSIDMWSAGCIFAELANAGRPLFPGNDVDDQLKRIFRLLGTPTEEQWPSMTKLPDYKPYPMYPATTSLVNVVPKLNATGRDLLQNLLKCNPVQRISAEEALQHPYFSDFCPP
CDK5/p25, sequence (Q15078 99-307 partner limits assumed, species assumed): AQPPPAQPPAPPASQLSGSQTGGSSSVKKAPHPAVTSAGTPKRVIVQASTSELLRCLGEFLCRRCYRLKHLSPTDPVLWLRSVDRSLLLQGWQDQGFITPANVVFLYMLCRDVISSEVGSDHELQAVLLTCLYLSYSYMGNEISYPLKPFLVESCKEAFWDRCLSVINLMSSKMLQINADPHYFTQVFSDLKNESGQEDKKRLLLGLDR
Description: CDK5/p25 was reconstituted by mixing equal amounts of recombinant mammalian CDK5 and p25 expressed in E. coli as GST (glutathione S-transferase) fusion protein and purified by affinity chromatography on glutathione-agarose (vectors provided by Doctor L. H. Tsai) (p25 is a truncated version of p35, the 35-kDa CDK5 activator). Its activity was assayed with histone H1 in buffer C as described for CDK1/cyclin B.

[1] = 15 μM ATP, 30° C., myelin basic protein, read-out: IC50 DYRK1A
[2] = 15 μM ATP, 30° C., histone H1, read-out: IC50 CDK5/p25

SMILES	pIC50 (SH-SY5Y cells)	pIC50 (DYRK1A; [1])	pIC50 (GSK-3α/β)	pIC50 (CK1δ/ε)	pIC50 (CDK1/cyclin B)	melting point [°C]	pIC50 (CDK2/cyclin A)	pIC50 (CDK9/cyclin T)	pIC50 (CDK5/p25; [2])	pIC50 (DYRK1A)	pIC50 (CDK5/p25)
CCOc1ccnc2[nH]cc(-c3ccnc(N)n3)c12 [Meriolin 4, 3-[(2-amino)pyrimidin-4-yl]-4-ethoxy-1H-pyrrolo[2,3-b]pyridine]	7.09	7.49	7.52	7.00	8.00	–	–	–	–	–	–
COc1cc(Br)nc2[nH]cc(-c3ccnc(N)n3)c12 [Meriolin 4n, 3-[(2-amino)pyrimidin-4-yl]-6-bromo-4-methoxy-1H-pyrrolo[2,3-b]pyridine]	–	–	–	–	–	> 210	–	–	–	–	–
CCCOc1ccnc2[nH]cc(-c3ccnc(N)n3)c12 [Meriolin 5, 3-[(2-amino)pyrimidin-4-yl]-4-propoxy-1H-pyrrolo[2,3-b]pyridine]	7.59	7.43	7.60	6.70	8.15	–	–	–	–	–	–
CC(C)Oc1ccnc2[nH]cc(-c3ccnc(N)n3)c12 [Meriolin 6, 3-[(2-amino)pyrimidin-4-yl]-4-(1-methylethoxy)-1H-pyrrolo[2,3-b]pyridine]	–	–	7.68	6.85	8.10	–	–	–	–	–	–
COCCOc1ccnc2[nH]cc(-c3ccnc(N)n3)c12 [Meriolin 7, 3-(2-aminopyrimidin-4-yl)-4-(2-methoxyethoxyl)-1H-pyrrolo[2,3-b]pyridine]	< 4.00	–	4.20	4.00	4.46	–	< 5.00	–	–	–	–
Cn1cc(-c2ccnc(N)n2)c2c(O)ccnc21 [Meriolin 8, 3-[(2-amino)pyrimidin-4-yl]-4-hydroxy-1-methyl-1H-pyrrolo[2,3-b]pyridine]	< 4.52	5.92	5.34	5.64	5.92	–	–	–	–	–	–
COc1ccnc2c1c(-c1ccnc(N)n1)cn2C [Meriolin 9, 3-[(2-amino)pyrimidin-4-yl]-4-methoxy-1-methyl-1H-pyrrolo[2,3-b]pyridine]	–	–	–	–	4.60	–	–	–	–	–	–
Nc1nccc(-c2c[nH]c3nccc(Cl)c23)n1 [Meriolin 10, 3-[(2-amino)pyrimidin-4-yl]-4-chloro-1H-pyrrolo[2,3-b]pyridine]	5.72	6.89	5.70	5.52	6.62	–	–	–	–	–	–
COc1ccnc2[nH]cc(-c3ccnc(SC)n3)c12 [Meriolin 12, 4-methoxy-3-[2-(methylsulfanyl)pyrimidin-4-yl]-1H-pyrrolo[2,3-b]pyridine, reference compound]	< 4.00	6.00	5.15	6.22	5.74	–	–	–	–	–	–
Oc1ccnc2[nH]cc(-c3ccncn3)c12 [Meriolin 13, 3-(pyrimidin-4-yl)-4-hydroxy-1H-pyrrolo[2,3-b]pyridine]	4.55	–	5.74	–	–	–	–	–	–	–	–
COc1ccnc2[nH]cc(-c3ccncn3)c12 [Meriolin 14, 4-methoxy-3-(pyrimidin-4-yl)-1H-pyrrolo[2,3-b]pyridine]	4.99	6.64	5.96	6.22	5.89	–	–	–	–	–	–
Nc1nccc(-c2c[nH]c3nccc(OCc4ccccc4)c23)n1 [Meriolin 15, 3-[(2-amino)pyrimidin-4-yl]-4-(benzyloxy)-1H-pyrrolo[2,3-b]pyridine]	7.89	7.40	8.48	6.89	8.64	> 210	8.80	8.14	8.70	–	–
Nc1nccc(-c2c[nH]c3nccc(OCC4CCCCC4)c23)n1 [Meriolin 16, 3-[(2-amino)pyrimidin-4-yl]-4-(cyclohexylmethoxy)-1H-pyrrolo[2,3-b]pyridine]	7.66	7.35	8.22	< 7.00	8.66	> 210	8.92	–	8.52	–	–
Nc1nccc(-c2c[nH]c3nccc(OC4CCCCC4)c23)n1 [Meriolin 17, 3-[(2-amino)pyrimidin-4-yl]-4-(cyclohexyloxy)-1H-pyrrolo[2,3-b]pyridine]	7.57	7.59	8.39	< 7.00	8.54	> 210	8.68	–	8.68	–	–
CCCC#Cc1ccnc2[nH]cc(-c3ccnc(N)n3)c12 [Meriolin 18, 3-[(2-amino)pyrimidin-4-yl]-4-(pent-1-ynyl)-1H-pyrrolo[2,3-b]pyridine]	7.00	7.70	7.09	5.89	7.96	–	8.30	–	8.35	–	–
CCCCCc1ccnc2[nH]cc(-c3ccnc(N)n3)c12 [Meriolin 19, 3-[(2-amino)pyrimidin-4-yl]-4-pentyl-1H-pyrrolo[2,3-b]pyridine]	4.89	7.25	5.76	5.09	6.46	> 210	6.71	–	6.70	–	–
Nc1nccc(-c2c[nH]c3nccc(C#Cc4ccccc4)c23)n1 [Meriolin 21, 3-[(2-amino)pyrimidin-4-yl]-4-(phenyleth-1-ynyl)-1H-pyrrolo[2,3-b]pyridine]	–	–	–	–	–	> 210	–	–	–	–	–
Nc1nccc(-c2c[nH]c3nccc(CCc4ccccc4)c23)n1 [Meriolin 22, 3-[(2-amino)pyrimidin-4-yl]-4-phenethyl-1H-pyrrolo[2,3-b]pyridine]	5.62	7.14	6.10	–	6.70	196 to 198	7.14	–	6.89	–	–
Nc1nccc(-c2c[nH]c3nccc(-c4ccccc4)c23)n1 [Meriolin 23, 3-[(2-amino)pyrimidin-4-yl]-4-phenyl-1H-pyrrolo[2,3-b]pyridine]	7.06	7.30	7.10	–	8.00	> 210	8.05	–	8.15	–	–
Nc1nccc(-c2c3c(O)ccnc3n3c(N)nccc23)n1 [Variolin B, reference compound]	6.62	–	7.15	8.30	7.22	–	7.10	7.59	–	7.10	7.05
